From BigSolDB 2.1

Nc1ccc(Cl)cc1[N+](=O)[O-]
solubility (mole fraction)
Details | 278.15 K | 283.15 K | 288.15 K | 293.15 K | 298.15 K | 303.15 K | 308.15 K | 313.15 K | 318.15 K | 323.15 K
in 1,4-dioxane | – | – | 0.0282 | 0.0337 | 0.0405 | 0.0509 | 0.065 | 0.0828 | 0.105 | 0.133
in NMP | 0.0539 | 0.0605 | 0.0737 | 0.0887 | 0.106 | 0.125 | 0.142 | 0.167 | 0.187 | 0.223
in acetonitrile | 0.0327 | 0.0373 | 0.0442 | 0.053 | 0.0625 | 0.075 | 0.09 | 0.105 | 0.124 | 0.145
in cyclohexane | 0.000163 | 0.000195 | 0.000267 | 0.000354 | 0.000468 | 0.000613 | 0.000773 | 0.000983 | 0.00124 | 0.0016
in ethanol | 0.013 | 0.0144 | 0.0168 | 0.0194 | 0.0232 | 0.0277 | 0.0323 | 0.0371 | 0.043 | 0.0493
in ethyl acetate | 0.0193 | 0.0244 | 0.032 | 0.0418 | 0.0535 | 0.0684 | 0.0883 | 0.113 | 0.143 | 0.177
in ethylene glycol | 0.00179 | 0.00229 | 0.00281 | 0.00363 | 0.00453 | 0.00573 | 0.00737 | 0.00926 | 0.0118 | 0.0158
in isopropanol | 0.0111 | 0.0123 | 0.0145 | 0.0175 | 0.0208 | 0.0252 | 0.0296 | 0.0352 | 0.0406 | 0.0463
in methanol | 0.0158 | 0.017 | 0.0199 | 0.0239 | 0.0287 | 0.034 | 0.0403 | 0.0479 | 0.056 | 0.0667
in n-butanol | 0.00963 | 0.0107 | 0.0124 | 0.0146 | 0.0177 | 0.0215 | 0.0257 | 0.0301 | 0.0357 | 0.0427
in n-propanol | 0.0119 | 0.013 | 0.0152 | 0.018 | 0.0217 | 0.0259 | 0.0308 | 0.0362 | 0.042 | 0.0481
in water | 8e-06 | 1e-05 | 1.4e-05 | 1.9e-05 | 2.5e-05 | 3.3e-05 | 4.3e-05 | 5.5e-05 | 7e-05 | 8.6e-05
